Assay results reported in EPA's ToxValDB 9.5.
Blank lines part the entries; values can stand above or below the molecule they belong to.

Tests used:
Rattus norvegicus [1] = settings: oral
Rattus norvegicus [2] = settings: oral, gavage; for LOAEL / NOAEL: Sprague-Dawley
[3] = subchronic, gavage, M, Sprague-Dawley
[4] = subchronic, gavage, M, Sprague-Dawley, Clinical Observation: Salivation + Body Weight Changes: Gain increase + Food Consumption: increase + Hematology: Plt increase, Eosinophil% …
[5] = subchronic, gavage, M, Sprague-Dawley, Clinical Observation: Excessive salivation Decreased spontaneous locomotors Decreased respiration rate Incomplete eyelid opening + …
[6] = short-term, duration: 28 days, gavage, M, Sprague-Dawley, Clinical Observation: Yellow-orange urine SalivationSpontaneous locomotion decrease, Respiratory rate decrease, Soft stool + Body Weight …
[7] = short-term, duration: 28 days, gavage, F, Sprague-Dawley, Functional Observational Battery: Locomotor activity decrease
[8] = short-term, duration: 28 days, gavage, M, Sprague-Dawley, Functional Observational Battery: Locomotor activity decrease
[9] = reproduction developmental, duration: 4 weeks, M, Rjhan:SD, generation: P0, P0: Whole Body: Clinical Observations
[10] = reproduction developmental, duration: 4 weeks, M, generation: P0, P0: General Toxicity: Whole Body: Body Weight + P0: General Toxicity: Whole Body: Clinical Observations + P0: General Toxicity: Whole Body: …
[11] = reproduction developmental, duration: 6 weeks, F, Rjhan:SD, generation: P0, P0: Whole Body: Clinical Observations
[12] = reproduction developmental, duration: 54 days, F, generation: P0, P0: General Toxicity: Whole Body: Body Weight + P0: General Toxicity: Whole Body: Clinical Observations + P0: General Toxicity: Whole Body: …

SMILES: O=S(=O)(O)c1cc(Cl)cc(N=Nc2ccc3c(O)cccc3c2O)c1[O-].[Na+]
NOEL (Rattus norvegicus [1]; short-term, duration: 28 days, gavage, M/F, Crl:CD(SD), Deaths + Clinical Observation: Loose stool Locomotor activity increase + Body Weight Changes: decrease + Water Consumption: increase + …): < 40 mg/kg-day

SMILES: COc1cccc(OC)c1C(=O)P(=O)(CC(C)CC(C)(C)C)C(=O)c1c(OC)cccc1OC (stereo not drawn)
NOEL (Rattus norvegicus [1]; short-term, duration: 28 days, gavage, M/F, Blood Chemistry: CHE decrease + Absolute Organ Weight: Liver increase + Histopathology: Skin-Proliferation, epidermis, horny layer Skin-…): 5 mg/kg-day

SMILES: CC1(C)C(C=CC(=O)OC(C(F)(F)F)C(F)(F)F)C1C(=O)OC(C#N)c1cccc(Oc2ccccc2)c1 (stereo not drawn)
NOEL (Rattus norvegicus [1]; short-term, duration: 28 days, gavage, M/F, Deaths + Clinical Observation: Salivation + Urinalysis: Specific gravity decrease, pH decrease + Blood Chemistry: GPT increase, BUN …): < 5 mg/kg-day

SMILES: COc1c(N2CCNC(C)C2)c(F)cc2c(=O)c(C(=O)O)cn(C3CC3)c12.O (stereo not drawn)
NOAEL (Rattus norvegicus [1]; chronic, duration: 182 days, gavage, M/F, Wistar, Clinical Observation: Loss of increaseper incisor + Body Weight Changes: decrease + Urinalysis: Ca increase + Hematology: SEG decrease, …): 30 mg/kg-day

SMILES: CCn1cc(C(=O)O)c(=O)c2cc(F)c(N3CCNCC3)nc21.CCn1cc(C(=O)O)c(=O)c2cc(F)c(N3CCNCC3)nc21.CCn1cc(C(=O)O)c(=O)c2cc(F)c(N3CCNCC3)nc21.O.O
NOEL (Rattus norvegicus [1]; short-term, duration: 28 days, gavage, M/F, Sprague-Dawley, Clinical Observation: Loose stool + Body Weight Changes: Body weight gain decrease + Food Consumption: decrease + Urinalysis: White crystal…): 120 mg/kg-day

SMILES: CCOCCc1ccc(OCC(OC)OC)c(C)c1C
NOEL (Rattus norvegicus [1]; short-term, duration: 28 days, gavage, M/F, Clinical Observation: Salivation Locomotor activity decrease + Blood Chemistry: GOT increase, GPT increase, gamma-GTP increase, T-CHO …): < 40 mg/kg-day

SMILES: O=[N+]([O-])c1cc(Cl)c(/N=N/c2ccc3c(c2)c2ccccc2n3CCO)c(Cl)c1
NOEL (Rattus norvegicus [1]; short-term, duration: 28 days, gavage, M/F, Body Weight Changes: Body weight gain decrease + Food Consumption: decrease + Water Consumption: increase + Urinalysis: Urine volume …): 140 mg/kg-day

SMILES: CCCC[B-](c1ccccc1)(c1ccccc1)c1ccccc1.CCN(CC)c1ccc(C(=C/C=C/C(=C2C=CC(=[N+](CC)CC)C=C2)c2ccc(N(CC)CC)cc2)c2ccc(N(CC)CC)cc2)cc1
NOEL (Rattus norvegicus [1]; short-term, duration: 28 days, gavage, M/F, Blood Chemistry: GPT increase, Ch E decrease + Organ Weight: Kidney decrease, Adrenal decrease + Necropsy: Adrenal- Reddish brown + …): 30 mg/kg-day

SMILES: CC(O)C(=O)[O-].[Na+] (racemic) [Sodium DL-lactate]
NOEL (Rattus norvegicus [1]; subchronic, duration: 42 days, gavage, M, CD(SD), Thyroid Hormone: T4 increase, TSH increase + Histopathology: Stomach-Hyperplasia, squamous, limiting ridge): 100 mg/kg-day

SMILES: O=S(=O)(c1cc(Br)c(OCC(Br)CBr)c(Br)c1)c1cc(Br)c(OCC(Br)CBr)c(Br)c1 (stereo not drawn) [1,1'-Sulfonylbis[3,5-dibromo-4-(2,3-dibromopropoxy)benzene]]
NOAEL (Rattus norvegicus [1]; [3]): 1000 mg/kg-day | NOEL (Rattus norvegicus [1]; [3]): 1000 mg/kg-day

SMILES: CC(C)(O)C(Cl)(Cl)Cl [1,1,1-Trichloro-2-methyl-2-propanol]
NOEL (Rattus norvegicus [1]; subchronic, gavage, M, Sprague-Dawley, Clinical Observation: Staggering gait + Functional Observational Battery: Grip strength decrease, Locomotor activity decrease + Food …): < 10 mg/kg-day

SMILES: CN(C)CCN(C)CCN(C)C [1,1,4,7,7-Pentamethyldiethylenetriamine]
NOEL (Rattus norvegicus [1]; subchronic, gavage, M, Sprague-Dawley, Body Weight Changes: decrease200 + Blood Chemistry: Alb decrease, IP increase + Relative Organ Weight: Liver increase + Histopathology: "…): 40 mg/kg-day

SMILES: c1ccc2n[nH]nc2c1 [1,2,3-Benzotriazole]
NOEL (Rattus norvegicus [1]; subchronic, gavage, M, Sprague-Dawley, Blood Chemistry: AST increase, ALT increase, TP decrease, A/G increase, PL increase, K increase): < 30 mg/kg-day

SMILES: Clc1ccccc1NNc1ccccc1Cl [1,2-Bis(2-chlorophenyl)hydrazine]
NOEL (Rattus norvegicus [1]; subchronic, gavage, M, Sprague-Dawley, Body Weight Changes: decrease(trend) + Hematology: Hgb decrease, RET increase(trend) + Blood Chemistry: T-CHO increase(trend) + Relative …): 40 mg/kg-day

SMILES: CC(C)(C)c1cc(C(C)(C)C)cc(C(C)(C)C)c1 [1,3,5-Tri-tert-butylbenzene]
LOAEL (Rattus norvegicus [1]; [4]): 50 mg/kg-day | LOEL (Rattus norvegicus [1]; [4]): 50 mg/kg-day | NOAEL (Rattus norvegicus [1]; [4]): 10 mg/kg-day | NOEL (Rattus norvegicus [1]; [4]): 10 mg/kg-day

SMILES: Nc1ccc(Oc2cccc(Oc3ccc(N)cc3)c2)cc1 [1,3-Phenylenedi(4-aminophenyl ether)]
NOEL (Rattus norvegicus [1]; short-term, duration: 28 days, gavage, M/F, Deaths + Clinical Observation: Piloerection Abnormal distention Lethargy Loss of hair + Body Weight Changes: Weight gain decrease + Food …): 10 mg/kg-day

SMILES: SCC1CSC(CS)CS1 (stereo not drawn) [1,4-Dithiane-2,5-dimethanethiol]
NOEL (Rattus norvegicus [1]; short-term, duration: 28 days, gavage, M/F, Clinical Observation: Salivation Ataxic gait Locomotor activity decrease + Body Weight Changes: Body weight gain decrease + Food Consumption…): 20 mg/kg-day

SMILES: CC(C)(C)Oc1ccc(Cl)cc1 [1-Chloro-4-tert-butoxybenzene]
NOAEL (Rattus norvegicus [1]; [5]): 100 mg/kg-day | NOEL (Rattus norvegicus [1]; [5]): 20 mg/kg-day

SMILES: CCCCCCCCCCCCCCCCCCCCCCN(C)C [1-Docosanamine, N,N-dimethyl-]
NOEL (Rattus norvegicus [1]; subchronic, gavage, M, Sprague-Dawley, Body Weight Changes: decrease + Blood Chemistry: AST increase, ALT increase, Alb increase, A/G increase, ALP decrease + Necropsy: Mesentric …): 0.5 mg/kg-day

SMILES: C=COCC(CC)CCCC (stereo not drawn) [1-Ethenoxy-2-ethylhexane]
NOEL (Rattus norvegicus [1]; short-term, duration: 28 days, gavage, M/F, Sprague-Dawley, Urinalysis: Occult blood increase + Blood Chemistry: ALP increase, Cho increase, PL increase + Relative Organ Weight: Liver increase, …): 8 mg/kg-day

SMILES: COc1ccccc1[N+](=O)[O-] [1-Methoxy-2-nitrobenzene]
NOAEL (Rattus norvegicus [1]; [6]): 80 mg/kg-day | NOEL (Rattus norvegicus [1]; [6]): 80 mg/kg-day | NOEL (Rattus norvegicus [1]; subchronic, duration: 13 weeks, diet, M/F, Fischer 344, Deaths + Body Weight Changes: decrease + Food Consumption: decrease + Hematology: Ret increase, Hct decrease, Hgb decrease, RBC decrease, …): < 19.2 mg/kg-day

SMILES: C=CCCCCCC [1-Octene]
NOEL (Rattus norvegicus [1]; subchronic, duration: 90 days, gavage, M/F, Urinalysis: Volume increase + Blood Chemistry: Cl decrease, CRE increase + Absolute Organ Weight: Kidney increase + Relative Organ Weight: …): 50 mg/kg-day

SMILES: O=C1C(Cl)=C(Cl)C(=O)N1Cc1ccccc1 [1-benzyl-3,4-dichloro-1H-pyrrole-2,5-dione]
NOEL (Rattus norvegicus [1]; short-term, duration: 28 days, gavage, M/F, Clinical Observation: Salivation + Body Weight Changes: Body weight gain decrease + Blood Chemistry: TG decrease, GLU decrease + Organ …): 40 mg/kg-day

SMILES: O=C1NC(=O)c2c(Cl)c(Cl)c(Cl)c(Cl)c21 [1H-Isoindole-1,3(2H)-dione, 4,5,6,7-tetrachloro-]
LOEL (Rattus norvegicus [1]; [7]): 1000 mg/kg-day | NOEL (Rattus norvegicus [1]; [7]): 300 mg/kg-day | LOEL (Rattus norvegicus [1]; [8]): 1000 mg/kg-day | NOEL (Rattus norvegicus [1]; [8]): 300 mg/kg-day

SMILES: CC(C)=CCl [2,2-Dimethylvinyl chloride]
NOEL (Rattus norvegicus [1]; subchronic, duration: 13 weeks, gavage, M/F, Fischer 344, Deaths + Clinical Observation: Rough hair Inactivity Perianal wetness + Body Weight Changes: decrease + Histopathology: Liver/periportal-…): 125 mg/kg-day

SMILES: C=C(F)C(F)(F)C(F)(F)C(F)F [2,3,3,4,4,5,5-Heptafluoro-1-pentene]
NOEL (Rattus norvegicus [1]; short-term, duration: 28 days, gavage, M/F, Deaths + Clinical Observation: Salivation Locomotor activity decrease, Whitish discoloration of tooth Bradypnea Reddening of extremity and …): 8 mg/kg-day

SMILES: O=C(c1ccc(O)cc1)c1ccc(O)c(O)c1O [2,3,4,4'-Tetrahydroxybenzophenone]
NOEL (Rattus norvegicus [1]; subchronic, duration: 42 days, gavage, M, CD(SD), Clinical Observation: Salivation + Functional Observational Battery: Hind limb grip strength decrease + Body Weight Changes: Weight gain …): < 100 mg/kg-day

SMILES: CC(=O)C(C)=O [2,3-Butanedione]
NOEL (Rattus norvegicus [1]; subchronic, duration: 90 days, gavage, M/F, CFE, Body Weight Changes: decrease + Water Consumption: increase + Hematology: HGB decrease, HCT decrease, RET increase, WBC increase, NEUT …): 90 mg/kg-day

LEL (Rattus norvegicus [2]; [9]): 300 mg/kg-day | NEL (Rattus norvegicus [2]; [9]): 100 mg/kg-day | NEL (Rattus norvegicus [2]; reproduction developmental, duration: 6 weeks, F, Rjhan:SD, generation: P0, P0: Multi-organ: Histopathology, Unspecified + P0: Multi-organ: Organ Weights, Unspecified + P0: Ovary: Corpora Lutea + P0: Uterus: …): 1000 mg/kg-day | LEL (Rattus norvegicus [2]; [11]): 1000 mg/kg-day | NEL (Rattus norvegicus [2]; [11]): 300 mg/kg-day | NEL (Rattus norvegicus [2]; short-term, duration: 28 days, F, Crj:CD, Adrenal: Adrenal Gland Weight, Absolute + Adrenal: Adrenal Gland Weight, Absolute, Recovery + Adrenal: Adrenal Gland Weight, Relative + …): 1000 mg/kg-day | LEL (Rattus norvegicus [2]; short-term, duration: 28 days, F, Crj:CD, Blood: Platelet Count (PLT) + Blood: Total Protein (TP), Blood + Forestomach: Boundary Ridge Protrusion + Kidney: Pyelectasis + Stomach: …): 1000 mg/kg-day | NEL (Rattus norvegicus [2]; short-term, duration: 28 days, F, Crj:CD, Blood: Platelet Count (PLT) + Blood: Total Protein (TP), Blood + Forestomach: Boundary Ridge Protrusion + Stomach: Glandular Stomach, …): 200 mg/kg-day | NEL (Rattus norvegicus [2]; short-term, duration: 28 days, M, Crj:CD, Adrenal: Adrenal Gland Weight, Absolute + Adrenal: Adrenal Gland Weight, Absolute, Recovery + Adrenal: Adrenal Gland Weight, Relative + …): 1000 mg/kg-day | LEL (Rattus norvegicus [2]; short-term, duration: 28 days, M, Crj:CD, Blood: Albumin/Globulin (A/G) Ratio, Recovery + Blood: Calcium (CA), Recovery, Blood + Blood: Chloride (CL), Recovery, Blood + Forestomach: …): 1000 mg/kg-day | NEL (Rattus norvegicus [2]; short-term, duration: 28 days, M, Crj:CD, Forestomach: Boundary Ridge Protrusion): 200 mg/kg-day
SMILES: O=S(=O)(O)C(F)(F)F [Trifluoromethanesulfonic acid]
LOAEL (Rattus norvegicus [2]; developmental, duration: 54 days, M/F, generation: F1, F1: Developmental: Whole Body: Dams with Liveborn Pups + F1: Developmental: Whole Body: Lactation Index + F1: Developmental: Whole Body: …): 300 mg/kg-day | NEL (Rattus norvegicus [2]; reproduction developmental, duration: 4 weeks, M, Rjhan:SD, generation: P0, P0: Multi-organ: Histopathology, Unspecified + P0: Multi-organ: Organ Weights, Unspecified + P0: Whole Body: Body Weight, Absolute + P0: …): 1000 mg/kg-day | LOAEL (Rattus norvegicus [2]; [10]): 300 mg/kg-day | NOAEL (Rattus norvegicus [2]; [10]): 100 mg/kg-day | NOAEL (Rattus norvegicus [2]; reproduction developmental, duration: 4 weeks, M, generation: P0, P0: Whole Body: Whole Body: Histopathology, Unspecified): 1000 mg/kg-day | NEL (Rattus norvegicus [2]; reproduction developmental, duration: 6 weeks, M/F, Rjhan:SD, generation: F1, F1: Whole Body: Body Weight, Absolute + F1: Whole Body: Clinical Observations + F1: Whole Body: Dams with Liveborn Pups + F1: Whole Body: …): 1000 mg/kg-day | LOAEL (Rattus norvegicus [2]; reproduction developmental, duration: 54 days, F, generation: P0, P0: Developmental: Uterus: Implantation + P0: Developmental: Uterus: Post-Implantation Loss + P0: Developmental: Uterus: Pre-Implantation …): 300 mg/kg-day | LOAEL (Rattus norvegicus [2]; [12]): 300 mg/kg-day | NOAEL (Rattus norvegicus [2]; [12]): 100 mg/kg-day
